From patent US7217530B2 (priority 2002, dated 2007)

Columns and labels:
[1] = molecular target: recombinant PrP protein (recPrP) (Homo sapiens, UniProt P04156); assay type: physicochemical
[2] = test system: PrP^sc

p-sulfonato-3,7-(2-carboxy-methyloxy)-calix-[6]-arene [AML1]
structures observed for recPrP films in the presence of AML ([1]; SPM images, FIGS. 3 and 4): modified sequentially
Average height ([1]; dried film on mica, SPM): 217.7
Maximum height value ([1]; dried film on mica, SPM): 448.9
RMS (root mean square rugosity) ([1]; dried film on mica, SPM): 58.7 nm
Ra (average rugosity) ([1]; dried film on mica, SPM): 48 nm
dilution up to which detection of PrP^sc in the sample is possible [2]: 1/32
detection of the prion increased over detection of the same protein in the absence of AML1 ([2]; immunoblotting, FIG. 1, free AML1): at least four
